The values below come from patent US7829573B2, “Therapeutic combinations of antihypertensive and antiangiogenics agents” (AstraZeneca AB, priority 2000, dated 2010).

Where two headings read alike, the source gives them in different places.

Series [1] is described as follows: Measurement of blood pressure in conscious rats by radio telemetry. Type of series: in vivo, rat.
Method: Blood pressure was measured using the Data Sciences radio-telemetry equipment (Data Sciences International, Saint Paul, Minn., USA). This provides a means of measuring the blood pressure (BP), heart rate and activity of a conscious unrestrained rat remotely. The measurements obtained using this system are free from the stresses induced by surgery and restraint. The system comprises a pressure transducer (TA11PA-C40) (the ‘implant’) implanted in the abdomen of a rat which transmits a radio signal indicating the pressure in the aorta of the animal. The signal is detected by a receiver RA1010) placed under the plastic cage which houses the animal.
Rats were anaesthetised with “Fluothane™” inhalation anaesthetic. The abdomen of the rat was shaved and the skin coated with a topical disinfectant. […]
Blood pressure data was recorded from each animal every 10 minutes throughout the study. […] This average day time blood pressure measurement for each rat was calculated over a 4 day period immediately prior to the commencement of compound dosing.
For the next 4 days (i.e. days 11 to 14 of compound dosing) the rats were dosed with the ACE inhibitor captopril at 30 mg/kg p.o. once daily in addition to the quinazoline compound. The average blood pressure of each rat was calculated daily and the difference between the daily calculated pressure and the starting pressure was expressed.
For series [2] the following is noted: anaesthetised rats, 15 μg/kg bFGF; cited from earlier work.
A further series has as its system coronary arteries. Particulars: dog, in vitro; cited from earlier work.
For series [3] the following is noted: conscious rats, VEGF 250 μg/kg; cited from earlier work.

For `COc1cc2c(Nc3ccc(Br)cc3F)ncnc2cc1OCC1CCN(C)CC1` [4-(4-bromo-2-fluoroanilino)-6-methoxy-7-(1-methylpiperidin-4-ylmethoxy)quinazoline], the “effect on the diastolic blood pressure in rats” value in series [1] (conscious male wistar rats, 12.5 mg/kg p.o. once daily for 10 days, 3 dosed rats and a control rat (FIG. 1)) was “increase in blood pressure”.
With `C[C@H](CS)C(=O)N1CCC[C@H]1C(=O)O` [captopril, reference compound], the “effect of addition of ACE inhibitor on the increase in blood pressure caused by the VEGF receptor tyrosine kinase inhibitor” value in series [1] (captopril 30 mg/kg p.o. once daily on days 11 to 14 in addition to the quinazoline compound 12.5 mg/kg p.o.) is reported as “reversed”.
In the case of “bFGF: basic fibroblast growth factor, polypeptide with endothelial cell growth promoting activity”, the “time to return to normal blood pressure” value in series [2] was at most 30 min.
Take VEGF: the “effect on coronary arteries” value with coronary arteries is “dilate coronary arteries”. Further, the “time to return to normal blood pressure” value in series [3] was at most 20 min.
